Source: patent US20050085554A1, “Methods of treating disease through the administration of a manzamine analog or derivative” (priority 2003, published 2005)
Converted amounts (≈) assume the structure as drawn.

Key:
[1] = system: Plasmodium falciparum (D6 clone); assay: Antimalarial activity in vitro, D6 clone; type: cell-based
[2] = system: P. falciparum (chlorine-resistant W2 clone); assay: Antimalarial activity in vitro, W2 clone; type: cell-based, Plasmodium falciparum
[3] = system: Leishmania donovani; assay: Antileishmanial activity in vitro; type: cell-based
[4] = system: Mycobacterium intracellulare; assay: Activity against M. intracellulare; type: cell-based; details: for IC50 M. intracellulare: T5, NA = not active
[5] = system: Mycobacterium tuberculosis H37Rv; assay: In vitro antimycobacterial activity (Microplate Alamar Blue Assay), MIC; type: cell-based; details: T4
[6] = system: HIV-1LAV; assay: Anti-HIV-1 activity in PBM cells; type: cell-based, human immunodeficiency virus (HIV-1); details: T5
Protocol: Anti-HIV-1 activity was determined in PBM cells as described previously. See, Stock solutions (20 or 40 mM) of the compounds were prepared in sterile DMSO and then diluted to the desired concentration in growth medium. Cells were infected with the prototype HIV-1LAV at a multiplicity of infection of 0.1. Details on the infection of cells and assessment of antiviral effects was described previously. See, Schinazi, R. F.; McMillan, A.; Cannon, D.; Mathis, R.; Lloyd, R. M.; Peck, A.; Sommadossi, J.-P.; Clair, M. S.; Wilson, J.; Furman, P. A.; Painter G.; Choi, W.-B.; Liotta, D. C. Antimicrob. Agents Chemother. 1992, 36, 2423-2431 and Schinazi, R. F.; Sommadossi, J.-P.; Saalmann, V.; Cannon, D. L.; Xie, M.-Y.; Hart, G. C.; Smith, G. A.; Hahn, E. F. Antimicrob. Agents Chemother. 1990, 34, 1061-1067.

[7] = system: Cryptococcus neoformans; assay: Antifungal activity against Cryptococcus neoformans; type: cell-based; details: T5; NA = not active
[8] = system: Staphylococcus aureus; assay: Antibacterial activity against S. aureus; type: cell-based; details: T5; NA = not active
[9] = system: methicillin-resistant Staphylococcus aureus; assay: Antibacterial activity against MRS; type: cell-based; details: T5; NA = not active

12-O-methylmanzamine-A
Plasmodium falciparum (D6 clone) IC 50 ([1]; T7): 1.9 µg/mL
P. falciparum (chlorine-resistant W2 clone) IC 50 ([2]; T7): 1 µg/mL
Leishmania donovani IC 50 ([3]; T7): 6.5 µg/mL
Leishmania donovani IC 90 ([3]; T7): 16 µg/mL
M. intracellulare IC50 ([4]; T7, first value of a cell '2.0/5.0'): 2.0 µg/mL
M. intracellulare, second value of the cell (presumably MIC) ([4]; T7, value after the slash under head IC50): 5.0 µg/mL

Oc1cccc2c1[nH]c1c(C3=C[C@@]4(O)CC/C=C\CCCCN5CCC3[C@]3(CC6/C=C\CCCCN6[C@H]34)C5)nccc12 (single isomer, unassigned; (+)) [(+)-8-Hydroxymanzamine A]
Mycobacterium Tuberculosis (H37Rv) MIC [5]: 0.91 µg/mL
EC50 [6]: 0.59 µM
Antifungal IC50 C. neoformans [7]: 3.0 µg/mL
Plasmodium falciparum (D6 clone) IC 50 ([1]; T4, NA = not active): 0.006 µg/mL
P. falciparum (chlorine-resistant W2 clone) IC 50 ([2]; T4, NA = not active): 0.008 µg/mL
Leishmania donovani IC 50 ([3]; T4): 6.2 µg/mL
Leishmania donovani IC 90 ([3]; T4): 11 µg/mL
Antibacterial IC50 S. aureus [8]: 0.9 µg/mL
Antibacterial IC50 MRS [9]: 4.0 µg/mL
IC50 M. intracellulare [4]: 1.0 µg/mL (≈ 1.77 µM)

O[C@]12C=C(c3nccc4c3[nH]c3ccccc34)C3CCN(CCCC/C=C\CC1)C[C@@]31C[C@]34CC[C@H](CCCN3[C@H]12)O4 (stereo partly shown) [6-Deoxymanzamine X]
Mycobacterium Tuberculosis (H37Rv) MIC [5]: 1.77 µg/mL
EC50 [6]: 1.6 µM
Antifungal IC50 C. neoformans [7]: 2.0 µg/mL
Plasmodium falciparum (D6 clone) IC 50 ([1]; T4, NA = not active): 1.3 µg/mL
P. falciparum (chlorine-resistant W2 clone) IC 50 ([2]; T4, NA = not active): 1.4 µg/mL
Leishmania donovani IC 50 ([3]; T4): 3.2 µg/mL
Leishmania donovani IC 90 ([3]; T4): 7.5 µg/mL
Antibacterial IC50 S. aureus [8]: 1.5 µg/mL
Antibacterial IC50 MRS [9]: 1.5 µg/mL
IC50 M. intracellulare [4]: 6.25 µg/mL (≈ 11.1 µM)

O=C1CCCN2[C@@H](CC1)C[C@]13CN4CCCC/C=C\CC[C@](O)(C=C(c5nccc6c5[nH]c5ccc(O)cc56)[C@@H]1CC4)[C@H]23 [6-Hydroxymanzamine E]
Mycobacterium Tuberculosis (H37Rv) MIC [5]: 0.4 µg/mL
Antifungal IC50 C. neoformans [7]: 5.5 µg/mL
Plasmodium falciparum (D6 clone) IC 50 ([1]; T4, NA = not active): 0.78 µg/mL
P. falciparum (chlorine-resistant W2 clone) IC 50 ([2]; T4, NA = not active): 0.87 µg/mL
Leishmania donovani IC 50 ([3]; T4): 2.5 µg/mL
Leishmania donovani IC 90 ([3]; T4): 4.3 µg/mL
IC50 M. intracellulare [4]: 3.5 µg/mL (≈ 6.03 µM)

O=C1CCCN2C3C45C=C(c6nccc7c6[nH]c6ccccc67)C6CCN(CCCC/C=C\CC4)CC63C[C@@]2(CC1)O5 (stereo partly shown) [12,34-Oxamanzamine E]
EC50 [6]: 17.5 µM

CCCCOC12C=C(c3nccc4c3[nH]c3ccccc34)C3CCN(CCCCC=CCC1)CC31CC3C=CCCCCN3C21 (stereo not shown) [12-O-butylmanzamine-A]
Leishmania donovani IC 50 ([3]; T7): 4.7 µg/mL
Leishmania donovani IC 90 ([3]; T7): 9.1 µg/mL

CCOC12C=C(c3nccc4c3[nH]c3ccccc34)C3CCN(CCCCC=CCC1)CC31CC3C=CCCCCN3C21 (stereo not shown) [12-O-ethylmanzamine-A]
Leishmania donovani IC 50 ([3]; T7): 2.8 µg/mL
Leishmania donovani IC 90 ([3]; T7): 8.2 µg/mL

CC(C)COC12C=C(c3nccc4c3[nH]c3ccccc34)C3CCN(CCCCC=CCC1)CC31CC3C=CCCCCN3C21 (stereo not shown) [12-O-isobutylmanzamine-A]
Leishmania donovani IC 50 ([3]; T7): 0.98 µg/mL
Leishmania donovani IC 90 ([3]; T7): 2.6 µg/mL

CCCOC12C=C(c3nccc4c3[nH]c3ccccc34)C3CCN(CCCCC=CCC1)CC31CC3C=CCCCCN3C21 (stereo not shown) [12-O-propylmanzamine-A]
Leishmania donovani IC 50 ([3]; T7): 4.5 µg/mL
Leishmania donovani IC 90 ([3]; T7): 8.7 µg/mL

COc1ccc(OC)c(NC2CCCN3C(CC2)C[C@]24CN5CCCC/C=C\CC[C@](O)(C=C(c6nccc7c6[nH]c6c(O)cccc67)C2CC5)[C@H]34)c1 (stereo partly shown) [33-(2,5-dimethoxyaniline)-manzamine-F]
Plasmodium falciparum (D6 clone) IC 50 ([1]; T8, NA not defined): 1.7 µg/mL
P. falciparum (chlorine-resistant W2 clone) IC 50 ([2]; T8): 2.6 µg/mL

Oc1cccc2c1[nH]c1c(C3=C[C@@]4(O)CC/C=C\CCCCN5CCC3[C@]3(CC6CCC(NCc7ccc(Cl)cc7)CCCN6[C@H]34)C5)nccc12 (stereo partly shown) [33-(p-chlorobenzylamino)-manzamine-F]
Plasmodium falciparum (D6 clone) IC 50 ([1]; T8, NA not defined): 0.68 µg/mL
P. falciparum (chlorine-resistant W2 clone) IC 50 ([2]; T8): 1.3 µg/mL
